ChEMBL document CHEMBL3991601, “The target landscape of clinical kinase drugs” (Science, 2017)
Activity calls are given as the source filed them. On the calls: in the data inactive means no Kd found up to 30 µM.

Molecular target: PAS domain-containing serine/threonine-protein kinase (Homo sapiens, UniProt Q96RG2)
Sequence (Q96RG2 whole entry, the tested form may be a part): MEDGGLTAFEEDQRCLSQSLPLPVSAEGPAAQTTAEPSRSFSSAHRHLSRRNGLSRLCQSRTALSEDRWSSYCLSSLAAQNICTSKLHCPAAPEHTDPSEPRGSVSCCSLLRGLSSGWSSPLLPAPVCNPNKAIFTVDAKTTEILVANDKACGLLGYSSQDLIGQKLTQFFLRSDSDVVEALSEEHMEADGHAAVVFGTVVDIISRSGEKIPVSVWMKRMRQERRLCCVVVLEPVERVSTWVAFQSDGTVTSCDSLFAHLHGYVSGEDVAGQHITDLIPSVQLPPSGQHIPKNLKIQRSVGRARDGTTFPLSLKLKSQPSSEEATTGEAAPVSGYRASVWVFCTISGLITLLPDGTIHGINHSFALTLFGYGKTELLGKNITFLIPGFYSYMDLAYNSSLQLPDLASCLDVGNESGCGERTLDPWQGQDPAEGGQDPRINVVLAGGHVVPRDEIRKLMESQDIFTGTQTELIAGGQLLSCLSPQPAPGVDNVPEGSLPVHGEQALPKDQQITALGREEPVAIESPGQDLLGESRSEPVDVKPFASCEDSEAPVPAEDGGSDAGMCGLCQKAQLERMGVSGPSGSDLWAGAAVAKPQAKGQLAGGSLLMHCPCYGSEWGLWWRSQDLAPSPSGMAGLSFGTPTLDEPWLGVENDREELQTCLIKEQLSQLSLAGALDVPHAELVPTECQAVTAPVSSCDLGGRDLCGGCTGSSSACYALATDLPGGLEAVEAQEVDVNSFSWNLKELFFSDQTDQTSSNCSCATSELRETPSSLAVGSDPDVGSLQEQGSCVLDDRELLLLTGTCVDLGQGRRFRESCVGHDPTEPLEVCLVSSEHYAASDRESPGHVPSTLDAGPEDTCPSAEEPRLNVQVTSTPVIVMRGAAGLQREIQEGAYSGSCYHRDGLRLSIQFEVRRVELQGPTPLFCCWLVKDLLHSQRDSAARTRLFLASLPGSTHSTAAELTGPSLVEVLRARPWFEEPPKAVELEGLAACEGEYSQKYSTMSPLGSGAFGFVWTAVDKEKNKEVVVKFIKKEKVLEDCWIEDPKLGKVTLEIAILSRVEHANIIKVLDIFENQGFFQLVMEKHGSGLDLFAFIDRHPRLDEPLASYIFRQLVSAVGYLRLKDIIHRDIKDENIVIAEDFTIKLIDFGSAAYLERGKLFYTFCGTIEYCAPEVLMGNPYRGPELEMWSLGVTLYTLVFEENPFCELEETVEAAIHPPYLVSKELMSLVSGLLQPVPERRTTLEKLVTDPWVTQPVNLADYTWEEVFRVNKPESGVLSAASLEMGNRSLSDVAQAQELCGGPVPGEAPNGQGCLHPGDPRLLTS

`Cc1ccc(S(=O)(=O)Nc2nc3ccccc3nc2Nc2ccc3nsnc3c2)cc1` was tested. Which Kd did it give?
The Kd was > 30 µM (inactive).

How did the Kd turn out when `CN1CC[C@@H](c2c(O)cc(O)c3c(=O)cc(-c4ccccc4Cl)oc23)[C@@H]1CO` was run?
The Kd was > 30 µM (inactive).

How did the Kd turn out when `Cc1nc(N)sc1-c1ccnc(Nc2ccc(N3CCOCC3)cc2)n1` [CYC-116] was run?
Its Kd is > 30 µM (inactive).

With `CCn1c(-c2nonc2N)nc2c(C#CC(C)(C)O)ncc(OC[C@H]3CCCNC3)c21` [GSK-690693] as the compound, how does the Kd read?
Its Kd is 1.07 µM.

`Cc1c(F)cc(C(=O)NC2CC2)cc1-c1ccc(C(=O)NCC(C)(C)C)cn1` [LOSMAPIMOD] was tested. Which Kd did it give?
Its Kd is > 30 µM (inactive).

Molecular target: Serine/threonine-protein kinase 24 (Homo sapiens, UniProt Q9Y6E0)
Sequence (Q9Y6E0 whole entry): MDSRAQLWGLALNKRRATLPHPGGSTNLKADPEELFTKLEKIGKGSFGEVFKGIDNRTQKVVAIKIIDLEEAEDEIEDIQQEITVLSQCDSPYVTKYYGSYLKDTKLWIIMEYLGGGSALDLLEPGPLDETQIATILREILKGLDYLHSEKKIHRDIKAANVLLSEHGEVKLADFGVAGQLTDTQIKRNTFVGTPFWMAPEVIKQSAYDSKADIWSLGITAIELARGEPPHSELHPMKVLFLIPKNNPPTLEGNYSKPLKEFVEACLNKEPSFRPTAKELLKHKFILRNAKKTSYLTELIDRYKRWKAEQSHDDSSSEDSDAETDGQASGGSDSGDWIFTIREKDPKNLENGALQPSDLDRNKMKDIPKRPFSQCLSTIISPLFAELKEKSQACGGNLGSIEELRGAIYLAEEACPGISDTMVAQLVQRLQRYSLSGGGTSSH

`Cc1ccc(S(=O)(=O)Nc2nc3ccccc3nc2Nc2ccc3nsnc3c2)cc1` was tested. Which Kd did it give?
The Kd was > 30 µM (inactive).

`CN1CC[C@@H](c2c(O)cc(O)c3c(=O)cc(-c4ccccc4Cl)oc23)[C@@H]1CO` was tested. Which Kd did it give?
Its Kd is > 30 µM (inactive).

How did the Kd turn out when `Cc1nc(N)sc1-c1ccnc(Nc2ccc(N3CCOCC3)cc2)n1` [CYC-116] was run?
The Kd was > 30 µM (inactive).

For `Cc1c(F)cc(C(=O)NC2CC2)cc1-c1ccc(C(=O)NCC(C)(C)C)cn1` [LOSMAPIMOD], which Kd is on record?
The Kd was 0.011 µM.

Molecular target: Myosin-10 (Homo sapiens, UniProt P35580)
Sequence (P35580 whole entry): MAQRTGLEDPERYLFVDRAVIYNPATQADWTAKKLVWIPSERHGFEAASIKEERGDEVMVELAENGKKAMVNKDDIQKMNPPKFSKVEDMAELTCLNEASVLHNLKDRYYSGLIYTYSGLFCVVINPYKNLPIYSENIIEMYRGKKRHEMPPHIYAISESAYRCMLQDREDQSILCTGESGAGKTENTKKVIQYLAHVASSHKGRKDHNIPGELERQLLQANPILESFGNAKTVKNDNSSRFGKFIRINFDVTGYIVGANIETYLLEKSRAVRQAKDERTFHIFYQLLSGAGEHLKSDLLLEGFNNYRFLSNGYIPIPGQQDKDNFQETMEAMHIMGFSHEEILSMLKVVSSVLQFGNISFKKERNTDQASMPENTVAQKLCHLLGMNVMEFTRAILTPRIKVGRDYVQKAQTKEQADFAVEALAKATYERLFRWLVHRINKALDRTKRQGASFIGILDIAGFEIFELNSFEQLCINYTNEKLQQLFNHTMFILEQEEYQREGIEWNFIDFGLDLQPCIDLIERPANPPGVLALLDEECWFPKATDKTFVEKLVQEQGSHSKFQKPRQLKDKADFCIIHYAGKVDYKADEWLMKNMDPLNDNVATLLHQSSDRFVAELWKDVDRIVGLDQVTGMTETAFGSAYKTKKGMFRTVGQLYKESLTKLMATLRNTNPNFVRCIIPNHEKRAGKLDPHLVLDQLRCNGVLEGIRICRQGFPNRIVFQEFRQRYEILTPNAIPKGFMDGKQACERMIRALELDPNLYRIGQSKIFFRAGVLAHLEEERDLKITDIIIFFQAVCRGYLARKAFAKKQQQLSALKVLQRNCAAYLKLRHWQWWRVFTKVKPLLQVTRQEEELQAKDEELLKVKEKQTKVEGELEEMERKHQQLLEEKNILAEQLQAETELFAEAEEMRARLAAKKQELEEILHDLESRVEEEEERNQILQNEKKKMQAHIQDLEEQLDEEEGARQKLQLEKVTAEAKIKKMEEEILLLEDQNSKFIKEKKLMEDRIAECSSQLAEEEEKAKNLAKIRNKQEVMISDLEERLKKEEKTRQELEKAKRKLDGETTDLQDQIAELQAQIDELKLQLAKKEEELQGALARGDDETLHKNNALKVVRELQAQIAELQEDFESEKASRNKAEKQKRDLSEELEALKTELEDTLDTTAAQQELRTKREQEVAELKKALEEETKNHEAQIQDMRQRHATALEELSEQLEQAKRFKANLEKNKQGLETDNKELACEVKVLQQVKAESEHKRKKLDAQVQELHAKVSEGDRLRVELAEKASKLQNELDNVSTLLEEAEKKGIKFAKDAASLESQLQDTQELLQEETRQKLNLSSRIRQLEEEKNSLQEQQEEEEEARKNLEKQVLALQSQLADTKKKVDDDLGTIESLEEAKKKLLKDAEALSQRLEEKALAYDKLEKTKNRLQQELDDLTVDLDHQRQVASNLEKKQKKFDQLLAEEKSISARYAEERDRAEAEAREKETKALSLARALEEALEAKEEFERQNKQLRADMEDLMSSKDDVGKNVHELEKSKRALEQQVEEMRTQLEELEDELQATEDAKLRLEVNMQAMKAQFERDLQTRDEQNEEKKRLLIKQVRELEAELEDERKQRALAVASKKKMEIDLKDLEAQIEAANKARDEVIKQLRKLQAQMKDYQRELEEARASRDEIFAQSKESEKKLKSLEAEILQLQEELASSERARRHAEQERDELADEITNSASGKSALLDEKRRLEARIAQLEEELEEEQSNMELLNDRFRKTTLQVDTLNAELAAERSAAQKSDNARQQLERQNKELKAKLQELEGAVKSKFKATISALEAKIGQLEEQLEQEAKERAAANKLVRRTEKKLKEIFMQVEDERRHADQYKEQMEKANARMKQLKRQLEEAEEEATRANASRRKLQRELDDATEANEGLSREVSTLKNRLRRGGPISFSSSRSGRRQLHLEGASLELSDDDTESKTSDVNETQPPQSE

`Cc1ccc(S(=O)(=O)Nc2nc3ccccc3nc2Nc2ccc3nsnc3c2)cc1` was tested. Which Kd did it give?
The Kd was > 30 µM (inactive).

How did the Kd turn out when `Cc1nc(N)sc1-c1ccnc(Nc2ccc(N3CCOCC3)cc2)n1` [CYC-116] was run?
Its Kd is > 30 µM (inactive).

Molecular target: T1, Eukaryotic translation initiation factor 5B (Homo sapiens, UniProt O60841)
T1 sequence (O60841 whole entry): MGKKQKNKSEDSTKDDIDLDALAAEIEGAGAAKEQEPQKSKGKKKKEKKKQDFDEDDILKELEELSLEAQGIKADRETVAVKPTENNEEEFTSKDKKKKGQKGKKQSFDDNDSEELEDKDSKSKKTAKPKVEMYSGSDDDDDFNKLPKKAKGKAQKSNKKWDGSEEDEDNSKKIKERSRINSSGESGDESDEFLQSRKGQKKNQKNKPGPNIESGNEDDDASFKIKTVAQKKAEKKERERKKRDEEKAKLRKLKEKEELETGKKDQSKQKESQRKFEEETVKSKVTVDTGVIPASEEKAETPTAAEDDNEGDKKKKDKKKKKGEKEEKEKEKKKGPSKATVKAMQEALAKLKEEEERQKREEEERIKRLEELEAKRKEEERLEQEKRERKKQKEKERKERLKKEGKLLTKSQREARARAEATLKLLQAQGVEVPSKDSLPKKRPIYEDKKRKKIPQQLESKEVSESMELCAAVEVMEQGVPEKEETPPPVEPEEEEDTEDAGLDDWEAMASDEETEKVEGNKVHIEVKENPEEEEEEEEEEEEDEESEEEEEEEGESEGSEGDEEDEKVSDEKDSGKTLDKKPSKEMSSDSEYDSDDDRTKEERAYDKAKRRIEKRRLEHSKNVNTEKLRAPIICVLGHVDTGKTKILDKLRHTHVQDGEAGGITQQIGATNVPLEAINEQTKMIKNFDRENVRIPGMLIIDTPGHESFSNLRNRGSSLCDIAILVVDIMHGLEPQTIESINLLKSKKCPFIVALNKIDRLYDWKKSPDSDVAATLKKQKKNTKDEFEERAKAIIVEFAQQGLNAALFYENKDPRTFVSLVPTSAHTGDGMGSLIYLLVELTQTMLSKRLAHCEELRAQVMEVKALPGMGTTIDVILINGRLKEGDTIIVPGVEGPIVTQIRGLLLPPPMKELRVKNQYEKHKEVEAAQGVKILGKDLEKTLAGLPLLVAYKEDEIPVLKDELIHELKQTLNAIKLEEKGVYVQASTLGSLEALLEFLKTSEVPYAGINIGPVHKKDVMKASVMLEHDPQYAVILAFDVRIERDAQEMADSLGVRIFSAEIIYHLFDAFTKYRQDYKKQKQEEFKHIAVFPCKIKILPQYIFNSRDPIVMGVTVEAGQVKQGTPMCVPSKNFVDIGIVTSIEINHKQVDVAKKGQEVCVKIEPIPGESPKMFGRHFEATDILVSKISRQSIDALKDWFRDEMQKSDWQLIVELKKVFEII

`Cc1ccc(S(=O)(=O)Nc2nc3ccccc3nc2Nc2ccc3nsnc3c2)cc1` was tested. Which Kd did it give?
The Kd was > 30 µM (inactive).

`CN1CC[C@@H](c2c(O)cc(O)c3c(=O)cc(-c4ccccc4Cl)oc23)[C@@H]1CO` was tested. Which Kd did it give?
Its Kd is > 30 µM (inactive).

For `Cc1nc(N)sc1-c1ccnc(Nc2ccc(N3CCOCC3)cc2)n1` [CYC-116], which Kd is on record?
The Kd was > 30 µM (inactive).

Which Kd does the source give for `Cc1c(F)cc(C(=O)NC2CC2)cc1-c1ccc(C(=O)NCC(C)(C)C)cn1` [LOSMAPIMOD] here?
The Kd was > 30 µM (inactive).

Molecular target: G protein-coupled receptor kinase 6 (Homo sapiens, UniProt P43250)
Sequence (P43250 whole entry): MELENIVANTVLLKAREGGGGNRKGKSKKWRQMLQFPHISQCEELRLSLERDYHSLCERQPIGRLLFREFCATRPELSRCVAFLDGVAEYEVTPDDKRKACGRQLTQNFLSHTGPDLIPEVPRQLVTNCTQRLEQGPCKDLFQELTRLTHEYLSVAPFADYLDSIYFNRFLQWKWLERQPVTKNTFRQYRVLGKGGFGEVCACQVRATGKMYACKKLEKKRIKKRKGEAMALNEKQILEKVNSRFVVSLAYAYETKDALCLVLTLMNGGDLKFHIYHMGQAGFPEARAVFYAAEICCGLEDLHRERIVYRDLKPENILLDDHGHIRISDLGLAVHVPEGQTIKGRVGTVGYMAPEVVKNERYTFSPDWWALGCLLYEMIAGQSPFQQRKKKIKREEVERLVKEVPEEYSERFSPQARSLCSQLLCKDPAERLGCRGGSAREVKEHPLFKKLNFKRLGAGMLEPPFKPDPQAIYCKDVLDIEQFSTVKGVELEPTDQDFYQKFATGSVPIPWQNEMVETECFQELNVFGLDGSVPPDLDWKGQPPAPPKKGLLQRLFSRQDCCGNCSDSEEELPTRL

For `CN1CC[C@@H](c2c(O)cc(O)c3c(=O)cc(-c4ccccc4Cl)oc23)[C@@H]1CO`, which Kd is on record?
Its Kd is > 30 µM (inactive).

How did the Kd turn out when `Cc1c(F)cc(C(=O)NC2CC2)cc1-c1ccc(C(=O)NCC(C)(C)C)cn1` [LOSMAPIMOD] was run?
Its Kd is > 30 µM (inactive).

Molecular target: T2, ATP-dependent RNA helicase DHX30 (Homo sapiens, UniProt Q7L2E3)
T2 sequence (Q7L2E3 whole entry): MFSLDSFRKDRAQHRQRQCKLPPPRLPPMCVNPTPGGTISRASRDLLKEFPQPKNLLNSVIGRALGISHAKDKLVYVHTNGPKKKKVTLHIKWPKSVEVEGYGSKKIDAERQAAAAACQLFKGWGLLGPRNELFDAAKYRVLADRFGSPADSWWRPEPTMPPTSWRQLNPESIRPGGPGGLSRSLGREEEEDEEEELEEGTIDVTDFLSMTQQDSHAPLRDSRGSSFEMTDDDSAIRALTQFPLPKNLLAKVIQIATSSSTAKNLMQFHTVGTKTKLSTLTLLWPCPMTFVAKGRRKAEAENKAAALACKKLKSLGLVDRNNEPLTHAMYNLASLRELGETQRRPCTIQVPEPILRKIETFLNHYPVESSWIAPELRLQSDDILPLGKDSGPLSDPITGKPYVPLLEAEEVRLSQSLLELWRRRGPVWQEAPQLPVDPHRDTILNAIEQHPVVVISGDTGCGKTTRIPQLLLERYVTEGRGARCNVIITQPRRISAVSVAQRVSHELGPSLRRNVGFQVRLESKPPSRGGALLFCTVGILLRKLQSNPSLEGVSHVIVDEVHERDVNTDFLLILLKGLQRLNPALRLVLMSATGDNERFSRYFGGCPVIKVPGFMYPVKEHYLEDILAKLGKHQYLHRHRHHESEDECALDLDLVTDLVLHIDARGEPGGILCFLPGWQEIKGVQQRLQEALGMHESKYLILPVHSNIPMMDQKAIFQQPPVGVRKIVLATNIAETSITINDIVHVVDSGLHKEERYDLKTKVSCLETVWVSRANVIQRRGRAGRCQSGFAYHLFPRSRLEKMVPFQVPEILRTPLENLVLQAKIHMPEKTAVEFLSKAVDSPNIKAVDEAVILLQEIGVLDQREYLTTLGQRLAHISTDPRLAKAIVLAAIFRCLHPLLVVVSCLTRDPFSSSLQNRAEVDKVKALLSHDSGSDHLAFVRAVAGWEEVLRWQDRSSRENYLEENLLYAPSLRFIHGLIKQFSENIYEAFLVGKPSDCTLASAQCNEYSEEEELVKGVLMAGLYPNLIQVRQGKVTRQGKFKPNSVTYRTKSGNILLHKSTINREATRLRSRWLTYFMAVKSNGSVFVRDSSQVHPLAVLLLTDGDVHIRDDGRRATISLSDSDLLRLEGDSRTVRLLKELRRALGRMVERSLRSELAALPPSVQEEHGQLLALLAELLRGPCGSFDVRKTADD

Which Kd does the source give for `Cc1ccc(S(=O)(=O)Nc2nc3ccccc3nc2Nc2ccc3nsnc3c2)cc1` here?
The Kd was > 30 µM (inactive).

How did the Kd turn out when `CN1CC[C@@H](c2c(O)cc(O)c3c(=O)cc(-c4ccccc4Cl)oc23)[C@@H]1CO` was run?
Its Kd is > 30 µM (inactive).

`Cc1c(F)cc(C(=O)NC2CC2)cc1-c1ccc(C(=O)NCC(C)(C)C)cn1` [LOSMAPIMOD] was tested. Which Kd did it give?
Its Kd is > 30 µM (inactive).

Molecular target: T3, Adenine phosphoribosyltransferase (Homo sapiens, UniProt P07741)
T3 sequence (P07741 whole entry): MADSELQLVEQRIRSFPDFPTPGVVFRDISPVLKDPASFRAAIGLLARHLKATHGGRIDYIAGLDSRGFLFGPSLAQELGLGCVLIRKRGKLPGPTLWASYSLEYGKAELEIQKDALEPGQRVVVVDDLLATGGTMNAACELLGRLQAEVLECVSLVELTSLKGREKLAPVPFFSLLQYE

`CN1CC[C@@H](c2c(O)cc(O)c3c(=O)cc(-c4ccccc4Cl)oc23)[C@@H]1CO` was tested. Which Kd did it give?
The Kd was > 30 µM (inactive).

`Cc1nc(N)sc1-c1ccnc(Nc2ccc(N3CCOCC3)cc2)n1` [CYC-116] was tested. Which Kd did it give?
The Kd was > 30 µM (inactive).

For `CCn1c(-c2nonc2N)nc2c(C#CC(C)(C)O)ncc(OC[C@H]3CCCNC3)c21` [GSK-690693], which Kd is on record?
Its Kd is > 30 µM (inactive).

How did the Kd turn out when `Cc1c(F)cc(C(=O)NC2CC2)cc1-c1ccc(C(=O)NCC(C)(C)C)cn1` [LOSMAPIMOD] was run?
Its Kd is > 30 µM (inactive).

Molecular target: Dual specificity testis-specific protein kinase 2 (Homo sapiens, UniProt Q96S53)

Which Kd does the source give for `Cc1nc(N)sc1-c1ccnc(Nc2ccc(N3CCOCC3)cc2)n1` [CYC-116] here?
Its Kd is > 30 µM (inactive).

For `Cc1c(F)cc(C(=O)NC2CC2)cc1-c1ccc(C(=O)NCC(C)(C)C)cn1` [LOSMAPIMOD], which Kd is on record?
Its Kd is > 30 µM (inactive).

Molecular target: Obg-like ATPase 1 (Homo sapiens, UniProt Q9NTK5)
Sequence (Q9NTK5 whole entry, looked up): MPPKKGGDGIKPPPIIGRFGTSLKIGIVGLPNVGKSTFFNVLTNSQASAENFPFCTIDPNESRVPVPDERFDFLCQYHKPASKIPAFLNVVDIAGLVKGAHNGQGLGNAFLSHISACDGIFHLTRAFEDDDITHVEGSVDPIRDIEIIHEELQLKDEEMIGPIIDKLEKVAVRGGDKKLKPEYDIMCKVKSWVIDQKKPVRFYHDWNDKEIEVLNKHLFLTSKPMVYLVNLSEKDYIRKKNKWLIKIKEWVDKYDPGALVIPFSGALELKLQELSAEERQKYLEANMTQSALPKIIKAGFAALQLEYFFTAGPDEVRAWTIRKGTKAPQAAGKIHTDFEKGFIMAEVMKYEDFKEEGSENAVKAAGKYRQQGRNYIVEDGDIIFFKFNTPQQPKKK

With `Cc1ccc(S(=O)(=O)Nc2nc3ccccc3nc2Nc2ccc3nsnc3c2)cc1` as the compound, how does the Kd read?
Its Kd is > 30 µM (inactive).

`CN1CC[C@@H](c2c(O)cc(O)c3c(=O)cc(-c4ccccc4Cl)oc23)[C@@H]1CO` was tested. Which Kd did it give?
Its Kd is > 30 µM (inactive).

Which Kd does the source give for `Cc1nc(N)sc1-c1ccnc(Nc2ccc(N3CCOCC3)cc2)n1` [CYC-116] here?
Its Kd is > 30 µM (inactive).

`CCn1c(-c2nonc2N)nc2c(C#CC(C)(C)O)ncc(OC[C@H]3CCCNC3)c21` [GSK-690693] was tested. Which Kd did it give?
Its Kd is > 30 µM (inactive).

Which Kd does the source give for `Cc1c(F)cc(C(=O)NC2CC2)cc1-c1ccc(C(=O)NCC(C)(C)C)cn1` [LOSMAPIMOD] here?
The Kd was > 30 µM (inactive).
